From US5434182A (priority 1993, dated 1995)
Several values for one entry are separate records, joined by “and”; a condition that tells them apart may be missing. Equal values may be shown once. Entries after “also recorded” stand apart in the source; their conditions may differ. Where a name gives a salt, the structure may show the parent alone. Read-outs that look alike come from different tables or passages of the source.

Tests used:
Total White Blood Cells = test: Stability of white blood cells in whole human blood to added lipid; assay type: cell-based; parameters: unit not given here; details: 15 mM, control 6.4
Excerpt: Further testing has shown the effect of monoglyceride esters and ether on the total white blood cell concentration in whole human blood.

VSV [1] = test: microbe, parasite or virus in culture; assay type: cell-based, vesicular stomatitis virus
VSV [2] = test: microbe, parasite or virus in culture; assay type: cell-based, vesicular stomatitis virus strain Indiana; details: for antiviral effect in words: fatty acids of Table 2; for minimal effective concentration: read-out: lowest concentration which reduced the VSV titer by ≥4.0 log10 units
VSV [3] = test: microbe, parasite or virus in culture; assay type: cell-based, vesicular stomatitis virus strain Indiana
VSV [4] = test: microbe, parasite or virus in culture; assay type: cell-based, vesicular stomatitis virus; details: for log reduction at 5000 µM / log reduction at 10000 µM: Vesicular stomatitis virus, read-out: Log10 Reduction in VSV Titer
poliovirus = assay type: cell-based, Poliovirus type 1 strain Chat; details: 8 mg/ml, 37° C., 30 min; control 10^4.7 TCID50
HSV-1 = test: microbe, parasite or virus in culture; assay type: cell-based, herpes simplex virus type 1 strain MacIntyre; details: 37° C., 30 min; for log reduction at 2000 µg/mL: 2 mg/ml
Visna virus = test: microbe, parasite or virus in culture; assay type: cell-based, Visna virus strain K796; details: 37° C., 30 min; for log reduction at 2000 µg/mL: 2 mg/ml
sperm = test: Spermicidal test: motility and viability of sperm in semen; assay type: cell-based; details: for coating of sperm: B, D 100 mM in semen, 30 minutes
Procedure: The fatty acids and derivatives thereof disclosed here are useful as spermicides and in the treatment of sexually transmitted diseases. […] Four samples tested were comprised as follows:
Five test tubes were prepared, one for each of Samples A to D and a Control. An amount of 0.5 ml of active semen was added to each test tube. Each of Samples A and B and the Control was at 37° C., and Samples C and D were at room temperature. The percentages of motility and viability were measured from 15 seconds to 5 minutes in the case of each of Samples A to D and from 15 seconds to 2 hours for the Control.

[5] = Vesicular stomatitis virus, 0.5 h, read-out: Reduction of virus titer, VSV
[6] = Vesicular stomatitis virus, 0.5 h
[7] = Human alphaherpesvirus 1, 0.5 h, read-out: Reduction of virus titer, HSV-1
[8] = Visna-maedi virus, 0.5 h, read-out: Reduction of virus titer, VV (visna virus)
[9] = 100 mM in semen, 5 min., Sample B 37° C., Sample D room temperature
[10] = 150 mM in semen, 3 min., Sample A 37° C., Sample C room temperature
[11] = 150 mM in semen, 5 min., Sample A 37° C., Sample C room temperature

CCCCCCCCCCOC[C@@H](O)CO [1-O-Decyl-sn-glycerol, 1-O-decyl-sn-glycerol]
Total White Blood Cells (Total White Blood Cells): 1.31 | Reduction in VSV titer (VSV [1]; 5 mM, with 10 mM sodium taurocholate, human plasma, 37° 30 min): 0 Log10 | antiviral activity of MG ethers relative to esters, in words (VSV [1]; human plasma): just as effective as the naturally occurring esters

CCCCCC(=O)O [Caproic (6:0), Caproic]
log reduction at 10000 µg/mL (VSV [2]; [5]): 0 | antiviral effect in words (VSV [2]): no or a very small antiviral effect

CCCCCCCC/C=C\CCCCCCCC(=O)O [sodium salt of oleic acid]
antiviral effect in words (VSV [2]): antiviral effects similar to those of the free acids

CCCCCCCC/C=C\CCCCCCCC(=O)OCC(O)CO (centres unmarked) [Monoolein (18:1), Monoolein]
concentration with highest antiviral activity of the concentrations tested (0.5 to 4 mg/ml) (VSV [3]; VSV, 37° C., 30 min): 1.0 mg/ml and 2.8 mM | log reduction at 1000 µg/mL (VSV [3]; [5]): 2.3

CCCCCCCCCCCC(=O)OC[C@@H](O)COP(=O)([O-])OCC[N+](C)(C)C [L-α-Lysophosphatidylcholine lauroyl]
Log10 Reduction in VSV Titer (VSV [4]): 1.7 Log10 and 2.0 Log10 | log reduction at 5000 µM (VSV [4]): 1.2 | log reduction at 10000 µM (VSV [4]): 2

CCCCC/C=C\C/C=C\C/C=C\C/C=C\CCCC(=O)O [Arachidonic (20:4), arachidonic acid]
log reduction at 500 µg/mL (VSV [2]; [5]): ≥ 4 | minimal effective concentration (VSV [2]; [6]): 500 µg/mL and 1600 µM | reduction of poliovirus titer (poliovirus): did not cause a significant reduction of virus titer

CC/C=C\C/C=C\C/C=C\CCCCCCCC(=O)O [Linolenic (18:3), Linolenic]
Reduction of virus titer, HSV-1 (HSV-1; 1 mg/ml): ≥ 4.0 log10 | Reduction of virus titer, VSV (VSV [2]; 1 mg/ml, 37° C., 30 min): ≥ 4.0 log10 | lowest concentration which reduced the VSV titer by ≥4.0 log10 units (VSV [2]; 37° C., 30 min): 1 mg/ml and 3.6 mM | reduction of poliovirus titer (poliovirus): did not cause a significant reduction of virus titer | Reduction of virus titer, VV (visna virus) (Visna virus; 1 mg/ml): ≥ 3.2 log10

CCCC(=O)O [Butyric (4:0), Butyric]
log reduction at 10000 µg/mL (VSV [2]; [5]): 0 | antiviral effect in words (VSV [2]): no or a very small antiviral effect

L-α-lysophosphatidylcholine caproyl
Log10 Reduction in VSV Titer (VSV [4]; 5 mM, no sodium taurocholate): 0 Log10 | Log10 Reduction in VSV Titer (VSV [4]; 5 mM, with 10 mM sodium taurocholate): 0 Log10 | Log10 Reduction in VSV Titer (VSV [4]; 10 mM, no sodium taurocholate): 0 Log10 | Log10 Reduction in VSV Titer (VSV [4]; 10 mM, with 10 mM sodium taurocholate): 0 Log10 | Log10 Reduction in VSV Titer (VSV [4]; 15 mM, no sodium taurocholate): 0 Log10 | Log10 Reduction in VSV Titer (VSV [4]; 15 mM, with 10 mM sodium taurocholate): 1.0 Log10

CCCCCCCC(=O)O [Caprylic (8:0), Caprylic]
log reduction at 10000 µg/mL (VSV [2]; [5]): 1.8 | antiviral effect in words (VSV [2]): no or a very small antiviral effect | log reduction at 10000 µg/mL (Visna virus; Visna-maedi virus, 0.5 h, 10 mg/ml, read-out: Reduction of virus titer, VV (visna virus)): ≥ 3.2

CCCCCCCCCCCCCCCCCC(=O)O [Stearic (18:0), Stearic]
log reduction at 20000 µg/mL (VSV [2]; [5]): 0 | antiviral effect in words (VSV [2]): no or a very small antiviral effect

CCCCC/C=C\C/C=C\CCCCCCCC(=O)O [sodium salt of linoleic acid]
antiviral effect in words (VSV [2]): antiviral effects similar to those of the free acids

CCCCCCCC/C=C/CCCCCCCC(=O)O [Elaidic (18:1 trans), Elaidic]
log reduction at 2000 µg/mL (VSV [2]; [5]): ≥ 4 | minimal effective concentration (VSV [2]; [6]): 2000 µg/mL and 7000 µM

CCCCCCCC/C=C\CCCCCCCC(=O)O [Oleic (18:1 cis), Oleic]
log reduction at 2000 µg/mL (HSV-1; [7]): ≥ 4 | log reduction at 2000 µg/mL (VSV [2]; [5]): ≥ 4 | minimal effective concentration (VSV [2]; [6]): 2000 µg/mL and 7000 µM | reduction of poliovirus titer (poliovirus): did not cause a significant reduction of virus titer | log reduction at 2000 µg/mL (Visna virus; [8]): ≥ 3.2

CCCCCCCCCC(=O)OC[C@@H](O)COP(=O)([O-])OCC[N+](C)(C)C [L-α-lysophosphatidylcholine decanoyl]
Log10 Reduction in VSV Titer (VSV [4]): 1.7 Log10 | log reduction at 5000 µM (VSV [4]): 1.7 | log reduction at 10000 µM (VSV [4]): 1

CCCCCCCCCC(=O)O [Capric (10:0), Capric]
log reduction at 4000 µg/mL (HSV-1; Human alphaherpesvirus 1, 0.5 h, 4 mg/ml, read-out: Reduction of virus titer, HSV-1): ≥ 4 | log reduction at 4000 µg/mL (VSV [2]; [5]): ≥ 4 | minimal effective concentration (VSV [2]; [6]): 4000 µg/mL and 22000 µM | reduction of poliovirus titer (poliovirus): did not cause a significant reduction of virus titer | log reduction at 4000 µg/mL (Visna virus; Visna-maedi virus, 0.5 h, 4 mg/ml, read-out: Reduction of virus titer, VV (visna virus)): ≥ 3.2

CCCCCCCCCCCCCCCC(=O)O [Palmitic (16:0), Palmitic]
log reduction at 20000 µg/mL (HSV-1; Human alphaherpesvirus 1, 0.5 h, 20 mg/ml, read-out: Reduction of virus titer, HSV-1): 1 | log reduction at 20000 µg/mL (VSV [2]; [5]): 1 | antiviral effect in words (VSV [2]): no or a very small antiviral effect | log reduction at 20000 µg/mL (Visna virus; Visna-maedi virus, 0.5 h, 20 mg/ml, read-out: Reduction of virus titer, VV (visna virus)): 0.7

CCCCCCCC/C=C\CCCCCCCCOC[C@@H](O)CO [1-O-Oleyl-sn-glycerol, 1-O-oleyl-sn-glycerol]
log reduction at 5000 µM (VSV [1]; Vesicular stomatitis virus, 0.5 h, read-out: Reduction in VSV Titer, 5 mM, no sodium taurocholate, human plasma, 37° 30 min): 0 | log reduction at 10000 µM (VSV [1]; Vesicular stomatitis virus, 0.5 h, read-out: Reduction in VSV Titer, 10 mM, no sodium taurocholate, human plasma, 37° 30 min): 0 | log reduction at 15000 µM (VSV [1]; Vesicular stomatitis virus, 0.5 h, read-out: Reduction in VSV Titer, 15 mM, no sodium taurocholate, human plasma, 37° 30 min): 0 | antiviral activity of MG ethers relative to esters, in words (VSV [1]; human plasma): same lack of antiviral activity as the ester

N-dodecylsucrose
% mot. (sperm; 100 mM in semen, 15 sec., Sample B 37° C., Sample D room temperature): 17% | % mot. (sperm; 100 mM in semen, 30 sec., Sample B 37° C., Sample D room temperature): 9% | % mot. (sperm; 100 mM in semen, 1 min., Sample B 37° C., Sample D room temperature): 2% | % mot. (sperm; 100 mM in semen, 2 min., Sample B 37° C., Sample D room temperature): 0% | % mot. (sperm; 100 mM in semen, 3 min., Sample B 37° C., Sample D room temperature): 0% | % mot. (sperm; [9]): 0% | % via. (sperm; [9]): 0% | % mot. (sperm; 150 mM in semen, 15 sec., Sample A 37° C., Sample C room temperature): 0% | % mot. (sperm; 150 mM in semen, 30 sec., Sample A 37° C., Sample C room temperature): 0% | % mot. (sperm; 150 mM in semen, 1 min., Sample A 37° C., Sample C room temperature): 0% | % mot. (sperm; 150 mM in semen, 2 min., Sample A 37° C., Sample C room temperature): 0% | % mot. (sperm; [10]): 0% | % via. (sperm; [10]): 0% | % mot. (sperm; [11]): 0% | % via. (sperm; [11]): 0% | time within which 0% viability was effected (sperm; A, C 150 mM, B 100 mM in semen): ≤ 3 min | time within which sperm cells were rendered immobile (sperm; A, C 150 mM, B 100 mM in semen): ≤ 15 s | coating of sperm (sperm; A, C 150 mM, listed as Solution C): coated the sperm effectively; also recorded: most effective in this regard | coating of sperm (sperm; A, C 150 mM, listed as Solution D): did not have any coating effect at all

CCCCCC/C=C\CCCCCCCC(=O)O [Palmitoleic (16:1), Palmitoleic]
log reduction at 2000 µg/mL (HSV-1; [7]): ≥ 4 | log reduction at 2000 µg/mL (VSV [2]; [5]): ≥ 4 | minimal effective concentration (VSV [2]; [6]): 2000 µg/mL and 15000 µM | reduction of poliovirus titer (poliovirus): did not cause a significant reduction of virus titer | log reduction at 2000 µg/mL (Visna virus; [8]): ≥ 3.2
